Measured values from article PMC10381486, “Hydantoanabaenopeptins from Lake Kinneret Microcystis Bloom, Isolation, and Structure Elucidation of the Possible Intermediates in the Anabaenopeptins Biosynthesis” (Marine Drugs, 2023).

Assays:
[1] = molecular target: chymotrypsin (Bos taurus, UniProt P00766); experiment: Chymotrypsin inhibition assay (SGGPNA substrate, 96-well plate); type: biochemical; settings: Tris buffer pH 7.5, 5 min pre-incubation at 37 °C, kinetic absorbance at 405 nm over 30 min
Protocol: […] Assays were performed in a 96-well plate format.
The assay was performed in a Tris buffer (0.6 gr TRIS HCl/100 mL H2O, pH 7.5). The enzyme and the substrate Suc-Gly-Gly-phenylalanine-p-nitroanilide (SGGPNA) were dissolved in the buffer at a concentration of 1 mg/mL. To each well were added 100 μL of buffer, 10 μL of enzyme, and 10 μL of sample. Then, the plate was placed in the spectrophotometer for a 5 min incubation at 37 °C. Thereafter, to each well, 100 μL of substrate solution was added, and the plate was placed in the spectrophotometer for the kinetic measurement of the absorbance intensity over 30 min at a wavelength of 405 nm.

[2] = molecular target: T1, trypsin (Bos taurus, UniProt P00760); experiment: Trypsin inhibition assay (BAPNA substrate, 96-well plate); type: biochemical; settings: Tris buffer pH 7.5, 5 min pre-incubation at 37 °C, kinetic absorbance at 405 nm over 30 min
T1 construct: gene PRSS1
T1 sequence (P00760 24-246): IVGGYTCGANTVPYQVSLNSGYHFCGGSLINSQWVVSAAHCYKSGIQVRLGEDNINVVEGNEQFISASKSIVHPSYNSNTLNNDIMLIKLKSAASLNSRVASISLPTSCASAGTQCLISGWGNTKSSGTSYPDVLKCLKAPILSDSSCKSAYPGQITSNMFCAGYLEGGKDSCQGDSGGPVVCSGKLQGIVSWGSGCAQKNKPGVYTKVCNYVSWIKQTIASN
Protocol: The samples for biological assays were dissolved in DMSO at a concentration of 1 mg/mL and were tested for inhibition of the proteases at a single concentration: 1 […]. Assays were performed in a 96-well plate format.
The assay was performed in a Tris buffer (0.6 g Tris HCl in 100 mL H2O, pH 7.5). Benzoyl-L-arginine-p-nitroanilide hydrochloride (BAPNA), the trypsin substrate, was dissolved at 1 mg/mL in 1:9 DMSO/buffer. The enzyme was dissolved in buffer at 1 mg/mL. To each well were added 100 μL of buffer, 10 μL of enzyme, and 10 μL of sample. The plate was placed in the spectrophotometer at 37 °C. After 5 min, 100 μL of substrate solution was added to each well, and the plate was placed in the spectrophotometer for the kinetic measurement of the absorbance intensity over 30 min at a wavelength of 405 nm.

Substance: Dht-CO-cyclo-[Lys-Val-Hty-NMeAla-Phe] (lariat or depsi) [Compound 5, ^1[Dht]-anabaenopeptin A, new anabaenopeptin with dihomotyrosine at position 1]
- inhibition of the serine protease chymotrypsin ([1]; single concentration 53.3 μM): nonactive

Substance: Hydanto-oscillamide Y [Compound 4]
- inhibition of the serine protease chymotrypsin ([1]; single concentration 54.2 μM): nonactive

Substance: Hydantoanabaenopeptin B [Compound 2]
- inhibition of the serine protease trypsin ([2]; single concentration 55.6 μM): nonactive

Substance: Phe, NMeAla, Hty, Ile, Lys, and Arg (lariat or depsi) [Compound 3, Hydantoanabaenopeptin F, hydantoin derivative of anabaenopeptin F isolated from Lake Kinneret Microcystis bloom]
- inhibition of the serine protease trypsin ([2]; single concentration 54.6 μM): nonactive

Substance: cyclo-(Phe-NMeAla-Hty-Val-Lys-ε-NH)- (lariat or depsi) [Compound 1, Hydantoanabaenopeptin A, hydantoin derivative of anabaenopeptin A isolated from Lake Kinneret Microcystis bloom]
- inhibition of the serine protease chymotrypsin ([1]; single concentration 55.1 μM): nonactive

Substance: hydanto-Dht-[Lys-Val-Hty-NMeAla-Phe] (lariat or depsi) [Compound 6, ^1[Dht]-hydantoanabaenopeptin A, hydantoin derivative of 1[Dht]-anabaenopeptin A]
- inhibition of the serine protease chymotrypsin ([1]; single concentration 53.3 μM): nonactive
